Test results reported in patent publication US12077503B2, “Substituted cyclic amides and their use as herbicides” (FMC CORPORATION, priority 2015, dated 2024).

Columns and labels:
Type in all cases: in vivo
[1] = system: Galium (catchweed bedstraw, Galium aparine); experiment: Test C postemergence; conditions: scale 0 to 100, 0 no effect, 100 complete control
How it was run: (§1)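 Seeds in loam-sand soil treated preemergence, or plants in peat-based medium sprayed postemergence at 2–18 cm (1- to 4-leaf stage), with compound in a non-phytotoxic solvent mixture containing surfactant. Greenhouse-held 13–15 d, then visually rated against controls on a 0–100 scale (0 = no effect, 100 = complete control); dash = not tested.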

[2] = system: ragweed (common ragweed, Ambrosia elatior); experiment: Test C postemergence; conditions: scale 0 to 100, 0 no effect, 100 complete control
How it was run: as §1

[3] = system: chickweed (common chickweed, Stellaria media); experiment: Test C postemergence; conditions: scale 0 to 100, 0 no effect, 100 complete control
How it was run: as §1

[4] = system: johnsongrass (Sorghum halepense); experiment: Test C postemergence; conditions: scale 0 to 100, 0 no effect, 100 complete control
How it was run: as §1

soybean (Glycine max) = experiment: Test C postemergence; conditions: scale 0 to 100, 0 no effect, 100 complete control
How it was run: as §1

[5] = system: waterhemp (common waterhemp, Amaranthus rudis); experiment: Test C postemergence; conditions: scale 0 to 100, 0 no effect, 100 complete control
How it was run: as §1

[6] = system: morningglory (Ipomoea coccinea); experiment: Test C postemergence; conditions: scale 0 to 100, 0 no effect, 100 complete control
How it was run: as §1

[7] = system: lambsquarters (Chenopodium album); experiment: Test C postemergence; conditions: scale 0 to 100, 0 no effect, 100 complete control
How it was run: as §1

[8] = system: oilseed rape (Brassica napus); experiment: Test C postemergence; conditions: scale 0 to 100, 0 no effect, 100 complete control
How it was run: as §1

[9] = system: wheat (winter wheat, Triticum aestivum); experiment: Test C postemergence; conditions: scale 0 to 100, 0 no effect, 100 complete control
How it was run: as §1

[10] = system: blackgrass (Alopecurus myosuroides); experiment: Test C postemergence; conditions: scale 0 to 100, 0 no effect, 100 complete control
How it was run: as §1

[11] = system: ryegrass, Italian (Italian ryegrass, Lolium multiflorum); experiment: Test C postemergence; conditions: scale 0 to 100, 0 no effect, 100 complete control
How it was run: as §1

[12] = system: nutsedge, yellow (yellow nutsedge, Cyperus esculentus); experiment: Test C postemergence; conditions: scale 0 to 100, 0 no effect, 100 complete control
How it was run: as §1

Kochia (Kochia scoparia) = experiment: Test C postemergence; conditions: scale 0 to 100, 0 no effect, 100 complete control
How it was run: as §1

[13] = system: oat, wild (wild oat, Avena fatua); experiment: Test C postemergence; conditions: scale 0 to 100, 0 no effect, 100 complete control
How it was run: as §1

[14] = system: pigweed (Amaranthus retroflexus); experiment: Test D preemergence; conditions: scale 0 to 100
Source text: (§2) Seeds of plant species selected from bluegrass (annual bluegrass, Poa annua), blackgrass (Alopecurus myosuroides), canarygrass (littleseed canarygrass, Phalaris minor), chickweed (common chickweed, Stellaria media), Galium (catchweed bedstraw, Galium aparine), bromegrass, downy (downy bromegrass, Bromus tectorum), field poppy (Papaver rhoeas), field violet (Viola arvensis), foxtail, green (green foxtail, Setaria viridis), deadnettle (henbit deadnettle, Lamium amplexicaule), ryegrass, Italian (Italian ryegrass, Lolium multiflorum), Kochia (Kochia scoparia), lambsquarters (Chenopodium album), oilseed rape (Brassica napus), pigweed (Amaranthus retroflexus), chamomile (scentless chamomile, Matricaria inodora), Russian thistle (Salsola kali), speedwell (bird's-eye speedwell, Veronica persica), barley, spring (spring barley, Hordeum vulgare), wheat, spring (spring wheat, Triticum aestivum), buckwheat, wild (wild buckwheat, Polygonum convolvulus), mustard, wild (wild mustard, Sinapis arvensis), oat, wild (wild oat, Avena fatua), radish, wild (wild radish, Raphanus raphanistrum), windgrass (Apera spica-venti), barley, winter (winter barley Hordeum vulgare), and wheat, winter (winter wheat, Triticum aestivum) were planted into a silt loam soil and treated preemergence with test chemicals formulated in a non-phytotoxic solvent mixture which included a surfactant.
(§3) Treated plants and controls were maintained in a controlled growth environment approximately 21 d after which time all species were compared to controls and visually evaluated. Plant response ratings, summarized in Table D, are based on a scale of 0 to 100 where 0 is no effect and 100 is complete control. A dash (-) response means no test result.

[15] = system: mustard, wild (wild mustard, Sinapis arvensis); experiment: Test D preemergence; conditions: scale 0 to 100
Source text: as §2, §3

CN1C[C@H](c2ccc(F)c(F)c2)[C@@H](C(=O)Nc2ccccc2F)C1=O [Compound 596, (3S,4S)-4-(3,4-difluorophenyl)-N-(2-fluorophenyl)-1-methyl-2-oxo-3-pyrrolidinecarboxamide]
Plant response rating, Galium ([1]; 31 g ai/ha): 40
Plant response rating, Galium ([1]; 62 g ai/ha): 45
Plant response rating, Galium ([1]; 125 g ai/ha): 60
Plant response rating, Galium ([1]; 250 g ai/ha): 60
Plant response rating, Ragweed ([2]; 31 g ai/ha): 0
Plant response rating, Ragweed ([2]; 62 g ai/ha): 0
Plant response rating, Ragweed ([2]; 125 g ai/ha): 0
Plant response rating, Ragweed ([2]; 250 g ai/ha): 15
Plant response rating, Chickweed ([3]; 31 g ai/ha): 20
Plant response rating, Chickweed ([3]; 62 g ai/ha): 20
Plant response rating, Chickweed ([3]; 125 g ai/ha): 25
Plant response rating, Chickweed ([3]; 250 g ai/ha): 80
Plant response rating, Johnsongrass ([4]; 31 g ai/ha): 0
Plant response rating, Johnsongrass ([4]; 62 g ai/ha): 0
Plant response rating, Johnsongrass ([4]; 125 g ai/ha): 0
Plant response rating, Johnsongrass ([4]; 250 g ai/ha): 10
Plant response rating, Soybean (soybean (Glycine max); 31 g ai/ha): 0
Plant response rating, Soybean (soybean (Glycine max); 62 g ai/ha): 0
Plant response rating, Soybean (soybean (Glycine max); 125 g ai/ha): 10
Plant response rating, Soybean (soybean (Glycine max); 250 g ai/ha): 0
Plant response rating, Waterhemp ([5]; 31 g ai/ha): 0
Plant response rating, Waterhemp ([5]; 62 g ai/ha): 0
Plant response rating, Waterhemp ([5]; 125 g ai/ha): 20
Plant response rating, Waterhemp ([5]; 250 g ai/ha): 30
Plant response rating, Morningglory ([6]; 31 g ai/ha): 0
Plant response rating, Morningglory ([6]; 62 g ai/ha): 10
Plant response rating, Morningglory ([6]; 125 g ai/ha): 25
Plant response rating, Morningglory ([6]; 250 g ai/ha): 50
Plant response rating, Lambsquarters ([7]; 31 g ai/ha): 35
Plant response rating, Lambsquarters ([7]; 62 g ai/ha): 35
Plant response rating, Lambsquarters ([7]; 125 g ai/ha): 40
Plant response rating, Lambsquarters ([7]; 250 g ai/ha): 55
Plant response rating, Oilseed Rape ([8]; 31 g ai/ha): 0
Plant response rating, Oilseed Rape ([8]; 62 g ai/ha): 0
Plant response rating, Oilseed Rape ([8]; 125 g ai/ha): 30
Plant response rating, Oilseed Rape ([8]; 250 g ai/ha): 30
Plant response rating, Wheat ([9]; 31 g ai/ha): 0
Plant response rating, Wheat ([9]; 62 g ai/ha): 0
Plant response rating, Wheat ([9]; 125 g ai/ha): 0
Plant response rating, Wheat ([9]; 250 g ai/ha): 0
Plant response rating, Blackgrass ([10]; 31 g ai/ha): 0
Plant response rating, Blackgrass ([10]; 62 g ai/ha): 0
Plant response rating, Blackgrass ([10]; 125 g ai/ha): 0
Plant response rating, Blackgrass ([10]; 250 g ai/ha): 10
Plant response rating, Ryegrass, Italian ([11]; 31 g ai/ha): 0
Plant response rating, Ryegrass, Italian ([11]; 62 g ai/ha): 0
Plant response rating, Ryegrass, Italian ([11]; 125 g ai/ha): 0
Plant response rating, Ryegrass, Italian ([11]; 250 g ai/ha): 0
Plant response rating, Nutsedge, Yellow ([12]; 31 g ai/ha): 0
Plant response rating, Nutsedge, Yellow ([12]; 62 g ai/ha): 0
Plant response rating, Nutsedge, Yellow ([12]; 125 g ai/ha): 10
Plant response rating, Nutsedge, Yellow ([12]; 250 g ai/ha): 10
Plant response rating, Kochia (Kochia (Kochia scoparia); 31 g ai/ha): 30
Plant response rating, Kochia (Kochia (Kochia scoparia); 62 g ai/ha): 30
Plant response rating, Kochia (Kochia (Kochia scoparia); 125 g ai/ha): 35
Plant response rating, Kochia (Kochia (Kochia scoparia); 250 g ai/ha): 60
Plant response rating, Oat, Wild ([13]; 31 g ai/ha): 0
Plant response rating, Oat, Wild ([13]; 62 g ai/ha): 0
Plant response rating, Oat, Wild ([13]; 125 g ai/ha): 0
Plant response rating, Oat, Wild ([13]; 250 g ai/ha): 5

CN1C[C@H](c2ccc(C(F)(F)F)cc2)[C@@H](C(=O)Nc2cccc(F)c2F)C1=O [Compound 623, (3S,4S)—N-(2,3-difluorophenyl)-1-methyl-2-oxo-4-[4-(trifluoromethyl)phenyl]-3-pyrrolidinecarboxamide]
Plant response rating: Pigweed ([14]; 31 g ai/ha): 75
Plant response rating: Pigweed ([14]; 62 g ai/ha): 95
Plant response rating: Pigweed ([14]; 125 g ai/ha): 95
Plant response rating: Pigweed ([14]; 250 g ai/ha): 100
Plant response rating: Mustard, Wild ([15]; 31 g ai/ha): 10
Plant response rating: Mustard, Wild ([15]; 62 g ai/ha): 15
Plant response rating: Mustard, Wild ([15]; 125 g ai/ha): 85
Plant response rating: Mustard, Wild ([15]; 250 g ai/ha): 85
